Data on 2 compounds can be found in US20110158944A1, “BRAF BIOMARKERS” (priority 2007, published 2011).

What all share (assay): Cell proliferation IC50 (Cell Titer Glo)
What all share (type): cell-based
(In general: In ATP-based viability assays light output follows the ATP content of the culture.)

Assay [1] deals with SK-Mel-31. The conditions noted are these: Homo sapiens, 96 h, read-out: IC50 cell proliferation. The method, then: (§1) IC50 Cell proliferation measurements. Cell proliferation was assessed in the 41 tumor cell lines set forth in Table 2 after 4 days of continuous exposure to either the ERK1/2 inhibitor, compound a or the MEK inhibitor compound b (PD0325901) using Promega Cell Titer Glo reagent (Promega Corp, Madison, Wis.). Promega's CellTiter-Glo™ Luminescent Cell Viability Assay is a sensitive method for assaying cell proliferation using a stable form of luciferase to measure ATP as an indicator of viable cells. This reagent allows a homogeneous method of determining cell number by quantitation of ATP. The luciferase luminescent signal produced is proportional to the number of viable cells present in culture.
(§2) A 1000× compound dose response curve, containing 8 dilutions of each compound, was prepared on a 96-well plate. Compounds were diluted in 100% DMSO to the following (1000×) concentrations: compound b: 1000 μM, 333 μM, 111 μM, 37 μM, 12 μM, 4.1 μM, 1.4 μM and 0.5 μM; compound a: 3000 μM, 1000 μM, 333 μM, 111 μM, 37 μM, 12 μM, 4.1 μM and 1.4 μM. This compound source plate was sealed and kept frozen between uses.
(§3) Cells were grown in RPMI 1640 medium supplemented with 10% Fetal Bovine Serum, 2 mM Glutamine and non-essential amino acids or DMEM/F12 Media containing the same supplements. On day zero, cells were trypsinized, counted and plated into wells of a 96-well Wallac TC Isoplate (Perkin-Elmer Wallac, Gaithersburg, Md.) at a density of 1500-2000 cells per well in 50 μl of complete media. An additional 6-8 replicate well of the cells at the same density were plated on a separate Wallac TC Isoplate. This plate was developed on day 1 to determine the cell-growth baseline.
(§4) On day 1 of treatment, compound was diluted to 2× in media and immediately added to the cells as follows: one ml of media was added to each well of a deep-well 96-well plate and 2 μl of 1000× compound was added with mixing to make 2× compound in media. 50 μl of the media containing 2× compound was added to the cell plates in duplicate points so the final concentrations for each well were as outlined in Table 1. The plates were then returned to a 37° C. incubator and left undisturbed for 4 days. The day 1 (baseline) plates were developed by first adding 50 μl media (without compound) to bring the volume in each well to 100 μl, then adding 100 μl of Cell Titer Glo reagent (as below).
(§5) After four days of treatment, the plates were developed with Cell Titer Glo (CTG) reagent (Promega Corp.; Madison, Wis.). Reagent was reconstituted as described in the product insert. 100 μl of reagent was added to all treatment and control wells and the plates were gently shaken for 5 minutes then incubated an additional 5 minutes before reading in an Analyst AD (Molecular Devices Corporation; Sunnyvale, Calif.) using the Luminescence settings.
(§6) Data was analyzed in Excel using XLfit 4.2, fit model #205 (Dose Response One Site)

In assay [2] the test system is Daudi. The conditions noted are these: Homo sapiens, 96 h, read-out: IC50 cell proliferation. The method, then:
as §1, §2, §3, §4, §5, §6

The subject of assay [3] is N-87. The conditions noted are these: Homo sapiens, 96 h, read-out: IC50 cell proliferation. The protocol:
as §1, §2, §3, §4, §5, §6

The subject of assay [4] is TT. The conditions noted are these: Homo sapiens, 96 h, Thyroid, BRAF V600V Wild type, 4 days continuous exposure. The method, then:
as §1, §2, §3, §4, §5, §6

Assay [5] concerns IGROV-1. To be noted: Homo sapiens, read-out: IC50 cell proliferation. The protocol: as §1, §2, §3, §4, §5, §6
The subject of assay [6] is Hs746T. The conditions noted are these: Homo sapiens, 96 h, read-out: IC50 cell proliferation. The method, then:
as §1, §2, §3, §4, §5, §6

The test system of assay [7] is BxPc-3. To be noted: Homo sapiens, read-out: IC50 cell proliferation. The method, then: as §1, §2, §3, §4, §5, §6
The subject of assay [8] is H292. To be noted: Homo sapiens, NCI-H292, 96 h, read-out: IC50 cell proliferation. The method, then:
as §1, §2, §3, §4, §5, §6

For assay [9], the system named is SK-Mel-5. To be noted: Homo sapiens, read-out: IC50 cell proliferation. The protocol:
as §1, §2, §3, §4, §5, §6

Assay [10] has as its system HT-144. The conditions noted are these: Homo sapiens, read-out: IC50 cell proliferation. The method, then:
as §1, §2, §3, §4, §5, §6

For assay [11], the system named is Caki-1. The conditions noted are these: Homo sapiens, read-out: IC50 cell proliferation. The protocol:
as §1, §2, §3, §4, §5, §6

Assay [12] concerns SK-Mel3. To be noted: Homo sapiens, read-out: IC50 cell proliferation. The method, then:
as §1, §2, §3, §4, §5, §6

Assay [13] has as its system A673. To be noted: Homo sapiens, read-out: IC50 cell proliferation. The method, then: as §1, §2, §3, §4, §5, §6
In assay [14] the test system is H716. The conditions noted are these: Homo sapiens, NCI-H716, 96 h, read-out: IC50 cell proliferation. The protocol: as §1, §2, §3, §4, §5, §6
For assay [15], the system named is KG-1. The conditions noted are these: Homo sapiens, read-out: IC50 cell proliferation. The method, then: as §1, §2, §3, §4, §5, §6
The subject of assay [16] is MB-453. To be noted: Homo sapiens, 96 h, read-out: IC50 cell proliferation. The protocol:
as §1, §2, §3, §4, §5, §6

Where two headings read alike, the source gives them in different places. A value given as a limit tells only on which side of the number the result lay.

Take `O=C(NOC[C@H](O)CO)c1ccc(F)c(F)c1Nc1ccc(I)cc1F` [cpd. b, PD0325901]: the IC50 is 0.018 µM in assay [1]; 1 µM in [2]; 0.064 µM in assay [3]; 0.255 µM in assay [4]; 0.039 µM in assay [5] (IGROV-1, 96 h); 0.007 µM in assay [6]. The IC50 in [7] (BXPC-3, 96 h) was determined as 0.119 µM; in [8], 0.005 µM; in assay [9] (SK-MEL-5, 96 h) it was 0.008 µM; in assay [10] (HT-144, 96 h), 0.01 µM; in [11] (CAKI-1, 96 h) it was 0.18 µM; in [12] (SK-MEL3, 96 h) it was 0.008 µM. The IC50 is 1 µM in [13] (A673, 96 h); 0.164 µM in assay [14]; 0.04 µM in assay [15] (KG-1, 96 h); 1 µM in assay [16].

Turning to `O=C(Nc1ccc2[nH]nc(-c3ccncc3)c2c1)C1CCN(CC(=O)N2CCN(c3ccc(-c4ncccn4)cc3)CC2)C1` (centres unmarked) [cpd. a], the IC50 in assay [1] (SK-Mel-31, Melanoma, BRAF V600E Heterozygous, 4 days continuous exposure) was 0.15 µM; in assay [2] (Leukemia, BRAF V600V Wild type, 4 days continuous exposure), more than 3 µM; in [3] (N-87, Gastric, BRAF V600V Wild type, 4 days continuous exposure), 0.307 µM; in [4], 0.406 µM; in [5] (96 h, IGROV-1, Ovarian, BRAF V600V Wild type, 4 days continuous exposure) it was 0.146 µM; in [6] (Gastric, BRAF V600V Wild type, 4 days continuous exposure) it was 0.125 µM. Besides, the IC50 stood at 0.184 µM in assay [7] (96 h, BxPc-3, Pancreas, BRAF V600V Wild type, 4 days continuous exposure); 0.09 µM in assay [8] (H292, Lung, BRAF V600V Wild type, 4 days continuous exposure); 0.066 µM in assay [9] (96 h, SK-Mel-5, Melanoma, BRAF V600E Heterozygous, 4 days continuous exposure); 0.06 µM in assay [10] (96 h, HT-144, Melanoma, BRAF V600E Homozygous, 4 days continuous exposure); 0.45 µM in [11] (96 h, Caki-1, Renal, BRAF V600V Wild type, 4 days continuous exposure); 0.118 µM in assay [12] (96 h, SK-Mel3, Melanoma, BRAF V600E Heterozygous, 4 days continuous exposure). Moreover, the IC50 was more than 3 µM in assay [13] (96 h, A673, Rhabdomyosarcoma, BRAF V600E Heterozygous, 4 days continuous exposure); 0.334 µM in [14] (H716, Colon, BRAF V600V Wild type, 4 days continuous exposure); 0.9 µM in assay [15] (96 h, KG-1, Leukemia, BRAF V600V Wild type, 4 days continuous exposure); 0.672 µM in assay [16] (MB-453, Breast, BRAF V600E Heterozygous, 4 days continuous exposure).
